Reference: patent US12351559B2 (Biohaven Therapeutics Ltd., priority 2014, dated 2025)

Each molecule was assayed against T1, Kv7.2/7.3 (Homo sapiens, UniProt O43525+O43526) (assay: Kv7.2/7.3 activation assay, QPatch planar patch-clamp, single concentration screen). Conditions: Kv7.2/Kv7.3 co-expressing HEK cells, compound 3 μM, steady-state current at end of 2 s pulse to −30 mV.
T1 construct: host or cells: HEK cells, tetracycline-inducible expression
Assay type: cell-based
Set-up: key: <1.2-fold increase over baseline (−); +/−: as a range from <1.2-fold increase over baseline (−) up to >6-fold increase over baseline (+++); as a range from <1.2-fold increase over baseline (−) up to >6-fold increase over baseline (+++); as a range from <1.2-fold increase over baseline (−) up to >6-fold increase over baseline (+++); >6-fold increase over baseline (+++)

SMILES | Kv7.2/7.3 Activity: increase in current over baseline
C[C@H](C(=O)Nc1nc2ccc(C#N)cc2n1C1CCC1)[C@](C)(O)c1ccccc1 [Example 19, (2S,3S)-N-(6-cyano-1-cyclobutyl-1H-benzo[d]imidazol-2-yl)-3-hydroxy-2-methyl-3-phenylbutanamide] | +
C[C@](O)(CC(=O)Nc1nc2ccc(Cl)cc2n1-c1ccc(F)cc1)c1ccccc1 [Example 107, (S)-N-(6-chloro-1-(4-fluorophenyl)-1H-benzo[d]imidazol-2-yl)-3-hydroxy-3-phenylbutanamide] | +
CC(C)[C@H](C)C(=O)Nc1nc2ccc(C#N)cc2n1-c1ccc(F)cc1 [Example 32, (S)-N-(6-cyano-1-(4-fluorophenyl)-1H-benzo[d]imidazol-2-yl)-2,3-dimethylbutanamide] | +
CC(C)(C)CC(=O)Nc1nc2ccc(CC(=O)O)c(F)c2n1C1CCC1 [Example 117, 2-(1-cyclobutyl-2-(3,3-dimethylbutanamido)-7-fluoro-1H-benzo[d]imidazol-6-yl)acetic acid] | +/−
CC1(n2c(NC(=O)C[C@@](C)(O)c3ccccc3)nc3ccc(C#N)cc32)CCC1 [Example 96, (R)-N-(6-cyano-1-(1-methylcyclobutyl)-1H-benzo[d]imidazol-2-yl)-3-hydroxy-3-phenylbutanamide] | ++
Cc1cc2nc(NC(=O)C[C@@](C)(O)C(F)(F)F)n(C(C)(C)C)c2cc1C#N [Example 135, (R)-N-(1-(tert-butyl)-6-cyano-5-methyl-1H-benzo[d]imidazol-2-yl)-4,4,4-trifluoro-3-hydroxy-3-methylbutanamide] | +/−
Cc1cc2nc(NC(=O)CC(C)(C)O)n(C3CCC3)c2cc1C#N [Example 130, N-(6-cyano-1-cyclobutyl-5-methyl-1H-benzo[d]imidazol-2-yl)-3-hydroxy-3-methylbutanamide] | +/−
C[C@](O)(C(=O)Nc1nc2ccc(C(F)(F)F)cc2n1C1CCC1)C(F)(F)F [Example 42, (S)-N-(1-cyclobutyl-6-(trifluoromethyl)-1H-benzo[d]imidazol-2-yl)-3,3,3-trifluoro-2-hydroxy-2-methylpropanamide] | +/−
CC(C(=O)Nc1nc2ccc(C#N)cc2n1C1CCC1)C(C)(C)C (centres unmarked) [Example 77, N-(6-cyano-1-cyclobutyl-1H-benzo[d]imidazol-2-yl)-2,3,3-trimethylbutanamide] | +
CN(C)C(CC(=O)Nc1nc2ccc(C#N)cc2n1C1CCC1)C(F)(F)F (centres unmarked) [Example 24, N-(6-cyano-1-cyclobutyl-1H-benzo[d]imidazol-2-yl)-3-(dimethylamino)-4,4,4-trifluorobutanamide] | +
Cc1cc2nc(NC(=O)C[C@](C)(O)c3ccccc3F)n(C(C)(C)C)c2cc1C#N [Example 122, (S)-N-(1-(tert-butyl)-6-cyano-5-methyl-1H-benzo[d]imidazol-2-yl)-3-(2-fluorophenyl)-3-hydroxybutanamide] | ++
C[C@@H](C(=O)Nc1nc2ccc(C#N)cc2n1C1CCC1)C(C)(C)C [Example 76, (R)-N-(6-cyano-1-cyclobutyl-1H-benzo[d]imidazol-2-yl)-2,3,3-trimethylbutanamide] | +
CC(C)(O)CC(=O)Nc1nc2ccc(C(F)(F)F)cc2n1-c1ccc(F)c(F)c1 [Example 143, N-(1-(3,4-difluorophenyl)-6-(trifluoromethyl)-1H-benzo[d]imidazol-2-yl)-3-hydroxy-3-methylbutanamide] | ++
Cc1cc2nc(NC(=O)C[C@](C)(O)C(F)(F)F)n(C(C)(C)C)c2cc1C#N [Example 134, (S)-N-(1-(tert-butyl)-6-cyano-5-methyl-1H-benzo[d]imidazol-2-yl)-4,4,4-trifluoro-3-hydroxy-3-methylbutanamide] | +/−
CC(C)(O)c1ccc2nc(NC(=O)C3CCC(F)(F)C3)n(C3CCC3)c2c1 (centres unmarked) [Example 102, N-(1-cyclobutyl-6-(2-hydroxypropan-2-yl)-1H-benzo[d]imidazol-2-yl)-3,3-difluorocyclopentane-1-carboxamide] | +/−
CC(C)(O)c1ccc2nc(NC(=O)C3CC34CCC4)n(C3CCC3)c2c1 (centres unmarked) [Example 101, N-(1-cyclobutyl-6-(2-hydroxypropan-2-yl)-1H-benzo[d]imidazol-2-yl)spiro[2.3]hexane-1-carboxamide] | +
C[C@](O)(C(=O)Nc1nc2ccc(C#N)cc2n1C1CCC1)C(F)(F)F [Example 16, (S)-N-(6-cyano-1-cyclobutyl-1H-benzo[d]imidazol-2-yl)-3,3,3-trifluoro-2-hydroxy-2-methylpropanamide] | +/−
C[C@H](C(=O)Nc1nc2ccc(C#N)cc2n1C1CCC1)C1(O)CCC1 [Example 27, (S)-N-(6-cyano-1-cyclobutyl-1H-benzo[d]imidazol-2-yl)-2-(1-hydroxycyclobutyl)propanamide] | +/−
Cc1cc2nc(NC(=O)C[C@](C)(O)c3ccc(F)cc3)n(C(C)(C)C)c2cc1C#N [Example 121, (S)-N-(1-(tert-butyl)-6-cyano-5-methyl-1H-benzo[d]imidazol-2-yl)-3-(4-fluorophenyl)-3-hydroxybutanamide] | +
CC1(n2c(NC(=O)C[C@](C)(O)c3ccccc3Cl)nc3ccc(C#N)cc32)CCC1 [Example 139, (S)-3-(2-chlorophenyl)-N-(6-cyano-1-(1-methylcyclobutyl)-1H-benzo[d]imidazol-2-yl)-3-hydroxybutanamide] | +
C[C@H](C(=O)Nc1nc2ccc(C#N)cc2n1C1CCC1)N(C)CC(F)(F)F [Example 22, (R)-N-(6-cyano-1-cyclobutyl-1H-benzo[d]imidazol-2-yl)-2-(methyl(2,2,2-trifluoroethyl)amino)propanamide] | +/−
COc1ccc2nc(NC(=O)CCC3CCCC3)n(C(C)C)c2c1 [Example 3, 3-cyclopentyl-N-(1-isopropyl-6-methoxy-1H-benzo[d]imidazol-2-yl)propanamide] | +++ (>6-fold increase over baseline (+++))
CC(O)(CC(=O)Nc1nc2ccc(C#N)cc2n1C1CCC1)c1ccccc1 (centres unmarked) [Example 17, N-(6-cyano-1-cyclobutyl-1H-benzo[d]imidazol-2-yl)-3-hydroxy-3-phenylbutanamide] | ++
